Experimental data reported in US20250032524A1, “BROAD SPECTRUM AMINOGLYCOSIDES AND USES THEREOF” (REVAGENIX, INC., priority 2022, published 2025).
Read-outs that look alike come from different tables or passages of the source.

How the values were obtained:
Type in all cases: cell-based
A. baumannii = assay: MIC broth microdilution (CLSI); conditions: Acinetobacter baumannii
Procedure, shortened: (§1)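 Organisms from overnight agar colonies were adjusted to 0.5 McFarland and tested in cation-adjusted Mueller-Hinton broth at a final 5×10^5 CFU/mL against 2-fold serial compound dilutions. Plates were incubated in ambient air at 35° C. for 18-24 hours; MIC was the lowest concentration preventing visible growth (OD 600 nm<0.05).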

E. cloacae = assay: MIC broth microdilution (CLSI); conditions: Enterobacter cloacae; strain AECL1089, MDR Clinical isolate (CDC CRE panel), CDC AR Bank 0154
Procedure, shortened: as §1

E. coli = assay: MIC broth microdilution (CLSI); conditions: Escherichia coli
Procedure, shortened: as §1

K. pneumoniae = assay: MIC broth microdilution (CLSI)
Procedure, shortened: as §1

P. aeruginosa [1] = assay: MIC broth microdilution (CLSI); conditions: Pseudomonas aeruginosa
Procedure, shortened: as §1

S. aureus = assay: MIC broth microdilution (CLSI); conditions: for MIC: Staphylococcus aureus
Procedure, shortened: as §1

[2] = system: A. baumannii-calcoaceticus; assay: Antibacterial surveillance of clinical isolates (MIC50/90); conditions: 100 isolates
Procedure, shortened: (§2)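 CLSI broth microdilution in cation-adjusted Mueller-Hinton broth, final inoculum 5×10^5 CFU/mL, 2-fold compound dilutions, 35° C ambient air for 18-24 hours. MIC = lowest concentration preventing visible growth (OD 600 nm<0.05). SENTRY US/European isolates (1:1); MIC50/MIC90 = concentrations inhibiting ≥50%/≥90% of each set.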

[3] = system: AG-resistant Enterobacterales; assay: as above
Procedure, shortened: (§3)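 Isolates were suspended to 5×10^5 CFU/mL final in cation-adjusted Mueller-Hinton broth containing 2-fold serial compound dilutions, then incubated 18-24 hours at 35° C in ambient air. The MIC was read as no visible growth (OD 600 nm<0.05), and MIC50/MIC90 were derived across each isolate set.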

[4] = system: AG-resistant P. aeruginosa; assay: as above; conditions: Pseudomonas aeruginosa, 50 isolates with defined aminoglycoside resistance
Procedure, shortened: as §2

Enterobacterales = assay: as above
Procedure, shortened: as §3

[5] = system: Methicillin-resistant S. aureus (MRSA); assay: as above; conditions: Staphylococcus aureus, MRSA, 30 isolates
Procedure, shortened: as §2

[6] = system: Methicillin-sensitive S. aureus (MSSA); assay: as above; conditions: Staphylococcus aureus, MSSA, 20 isolates
Procedure, shortened: as §2

P. aeruginosa [7] = assay: as above; conditions: Pseudomonas aeruginosa, 103 isolates
Procedure, shortened: as §2

[8] = system: clinical isolates of multi-drug resistant bacterial pathogens including A. baumannii, MRSA, P. aeruginosa, and CRE; assay: MIC secondary panel, overall statement; conditions: read-out: minimum inhibitory concentration (MIC) values
Procedure, shortened: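 CLSI broth microdilution in cation-adjusted Mueller-Hinton broth, 2-fold compound dilutions, final inoculum 5×10^5 CFU/mL. Incubated in ambient air at 35° C for 18-24 hours; MIC is lowest concentration preventing visible growth (OD 600 nm<0.05). QC strains and neomycin standard monitored performance.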

[9] = system: all sets of organisms tested (SENTRY clinical isolates); assay: Antibacterial surveillance, overall statement; conditions: all sets of organisms tested (Table 3); read-out: MIC50,90 values
Method: Minimum inhibitory concentrations for representative example compounds herein were determined by a broth microdilution method in accordance with the Clinical and Laboratory Standards Institute (CLSI) guidelines. In brief, organism suspensions were adjusted to a 0.5 McFarland standard to yield a final inoculum between 3×10^5 and 7×10^5 colony-forming units (CFU)/mL. The inoculum was prepared by suspension of a colony from an agar plate that was prepared the previous day. Compound dilutions and inoculum were prepared in sterile, cation adjusted Mueller-Hinton Broth (Beckton Dickinson).
Bacteria were suspended in sterile saline and added to each assay plate to obtain a final concentration of 5×10^5 CFU/mL. An inoculum volume of 100 μL was added to wells containing 100 μL of broth with 2-fold serial dilutions of the test compound. All inoculated microdilution trays were incubated in ambient air at 35° C. for 18-24 hours. Following incubation, the lowest concentration of the compound that prevented visible growth (OD 600 nm<0.05) is recorded was the MIC. […] Performance of the assay was monitored by the use of laboratory quality-control strains and a standard compound with a defined MIC spectrum (neomycin), in accordance with CLSI guidelines.
Several compounds of the disclosure (Compound 1, 2, and 3) were further evaluated against several hundred bacterial isolates (isolated in the United States and Europe, 1:1) selected from the SENTRY Antimicrobial Surveillance Program (JMI Laboratories, North Liberty, Iowa). The set of clinical isolates included 300 randomly selected Enterobacterales, 103 randomly selected P. aeruginosa, 100 randomly selected A. baumannii-calcoaceticus, 20 randomly selected Methicillin-sensitive S. aureus (MSSA), and 30 randomly selected Methicillin-resistant S. aureus (MRSA). In addition, 101 Enterobacterales and 50 P. aeruginosa isolates with genetically defined mechanisms of aminoglycoside resistance were included. […]

C[C@H](N)[C@@H]1CC[C@@H](N)[C@@H](O[C@@H]2[C@@H](N)[C@H](O)[C@@H](NC(=O)[C@@H](O)[C@H](F)CN)[C@H](O)[C@H]2O[C@@H]2O[C@H](CO)[C@@H](O[C@H]3O[C@@H](CN)[C@@H](O)[C@H](O)[C@H]3N)[C@H]2O)O1 [Compound 3, (2R,3R)-4-amino-N-((1R,2S,3S,4R,5R,6S)-3-amino-4-(((2R,3R,6S)-3-amino-6-((S)-1-aminoethyl)tetrahydro-2H-pyran-2-yl)oxy)-5-(((2S,3R,4S,5R)-4-(((2R,3R,4R,5S,6S)-3-amino-6-(aminomethyl)-4,5-dihydroxytetrahydro-2H-pyran-2-yl)oxy)-3-hydroxy-5-(hydroxymethyl)tetrahydrofuran-2-yl)oxy)-2,6-dihydroxycyclohexyl)-3-fluoro-2-hydroxybutanamide]
MIC (A. baumannii; read-out: Activity (MIC), strain NABA0007, ΔadeJK efflux): < 16 µg/mL
MIC (A. baumannii; read-out: Activity (MIC), strain NABA1427, MDR Clinical isolate): < 16 µg/mL
MIC (A. baumannii; read-out: Activity (MIC), strain NABA1433, MDR Clinical isolate): < 16 µg/mL
MIC (A. baumannii; read-out: Activity (MIC), strain NABA1434, MDR Clinical isolate): < 16 µg/mL
MIC (A. baumannii; read-out: Activity (MIC), strain NABA1436, MDR Clinical isolate): < 16 µg/mL
MIC (A. baumannii; read-out: Activity (MIC), strain NABA1437, MDR Clinical isolate): < 16 µg/mL
MIC (A. baumannii; read-out: Activity (MIC), strain NABA1438, MDR Clinical isolate): < 16 µg/mL
MIC (A. baumannii; read-out: Activity (MIC), strain NABA1439, MDR Clinical isolate): < 16 µg/mL
MIC (A. baumannii; read-out: Activity (MIC), strain NABA1448, MDR Clinical isolate): < 16 µg/mL
MIC (A. baumannii; read-out: Activity (MIC), strain NABA1449, MDR Clinical isolate): < 16 µg/mL
MIC (A. baumannii; read-out: Activity (MIC), strain NABA1450, MDR Clinical isolate): < 16 µg/mL
MIC (A. baumannii; strain NABA0006, WT parent, read-out: Activity (MIC)): < 16 µg/mL
MIC (A. baumannii; strain NABA0020, AME negative strain, read-out: Activity (MIC)): < 16 µg/mL
MIC (E. cloacae): < 16 µg/mL
MIC (E. coli; read-out: Activity (MIC), strain AECO1225, MDR Clinical isolate (CDC CRE panel), CDC AR Bank 0118): < 16 µg/mL
MIC (E. coli; read-out: Activity (MIC), strain AECO1226, MDR Clinical isolate (CDC CRE panel), CDC AR Bank 0119): < 16 µg/mL
MIC (E. coli; read-out: Activity (MIC), strain AECO1227, MDR Clinical isolate (CDC CRE panel), CDC AR Bank 0128): < 16 µg/mL
MIC (E. coli; read-out: Activity (MIC), strain NECO0003, ΔtolC): < 16 µg/mL
MIC (E. coli; read-out: Activity (MIC), strain NECO0245, ArmA): < 16 µg/mL
MIC (E. coli; strain NECO0001, WT QC, read-out: Activity (MIC)): < 16 µg/mL
MIC (E. coli; strain NECO0002, WT, read-out: Activity (MIC)): < 16 µg/mL
MIC (E. coli; strain NECO0243, empty vector, read-out: Activity (MIC)): < 16 µg/mL
MIC (E. coli; strain NECO0244, AAC(6')-Ib, read-out: Activity (MIC)): < 16 µg/mL
MIC (E. coli; strain NECO0289, APH(3')-Ia, read-out: Activity (MIC)): < 16 µg/mL
MIC (E. coli; strain NECO0302, AAC(3)-IIa, read-out: Activity (MIC)): < 16 µg/mL
MIC (E. coli; strain NECO0350, AAC(2')-I, read-out: Activity (MIC)): < 16 µg/mL
MIC (E. coli; strain NECO0359, ANT(4')-Ia, read-out: Activity (MIC)): < 16 µg/mL
MIC (K. pneumoniae; Klebsiella pneumoniae, strain AKPN1246, MDR Clinical isolate (CDC CRE panel), CDC AR Bank 0139): < 16 µg/mL
Activity (MIC) (K. pneumoniae; strain AKPN1250, MDR Clinical isolate (CDC CRE panel), CDC AR Bank 0143): + (MIC threshold for positive activity (+) is ≤16 μg/mL)
Activity (MIC) (K. pneumoniae; strain AKPN1253, MDR Clinical isolate (CDC CRE panel), CDC AR Bank 0148): + (MIC threshold for positive activity (+) is ≤16 μg/mL)
Activity (MIC) (K. pneumoniae; strain AKPN1255, MDR Clinical isolate (CDC CRE panel), CDC AR Bank 0153): + (MIC threshold for positive activity (+) is ≤16 μg/mL)
MIC (P. aeruginosa [1]; read-out: Activity (MIC), strain NPAE0006, Efflux KO, Aph(3')-IIb): < 16 µg/mL
MIC (P. aeruginosa [1]; read-out: Activity (MIC), strain NPAE0010, MexXY over-expressed, Aph(3')-IIb): < 16 µg/mL
MIC (P. aeruginosa [1]; read-out: Activity (MIC), strain NPAE1288, MDR Clinical isolate): < 16 µg/mL
MIC (P. aeruginosa [1]; read-out: Activity (MIC), strain NPAE1293, MDR Clinical isolate): < 16 µg/mL
MIC (P. aeruginosa [1]; read-out: Activity (MIC), strain NPAE1299, MDR Clinical isolate): < 16 µg/mL
MIC (P. aeruginosa [1]; read-out: Activity (MIC), strain NPAE1302, MDR Clinical isolate): < 16 µg/mL
MIC (P. aeruginosa [1]; read-out: Activity (MIC), strain NPAE1303, MDR Clinical isolate): < 16 µg/mL
MIC (P. aeruginosa [1]; read-out: Activity (MIC), strain NPAE1308, MDR Clinical isolate): < 16 µg/mL
MIC (P. aeruginosa [1]; read-out: Activity (MIC), strain NPAE1310, MDR Clinical isolate): < 16 µg/mL
MIC (P. aeruginosa [1]; read-out: Activity (MIC), strain NPAE1313, MDR Clinical isolate): > 16 µg/mL
MIC (P. aeruginosa [1]; read-out: Activity (MIC), strain NPAE1316, MDR Clinical isolate): < 16 µg/mL
MIC (P. aeruginosa [1]; read-out: Activity (MIC), strain NPAE1323, MDR Clinical isolate): < 16 µg/mL
MIC (P. aeruginosa [1]; strain NPAE0001, WT Aph(3')-IIb, QC, read-out: Activity (MIC)): < 16 µg/mL
MIC (P. aeruginosa [1]; strain NPAE0002, WT Aph(3')-IIb, read-out: Activity (MIC)): < 16 µg/mL
MIC (P. aeruginosa [1]; strain NPAE0359, aph(3')-IIb KO (tetR), read-out: Activity (MIC)): < 16 µg/mL
MIC (S. aureus; ATCC29213, strain NSAU001, wild-type, QC, ATCC 29213): < 16 µg/mL
MIC (S. aureus; strain NSAU1004, MDR Clinical isolate): < 16 µg/mL
Activity (MIC) (S. aureus; strain NSAU1015, MDR Clinical isolate): + (MIC threshold for positive activity (+) is ≤16 μg/mL)
Activity (MIC) (S. aureus; strain NSAU1023, MDR Clinical isolate): + (MIC threshold for positive activity (+) is ≤16 μg/mL)
Activity (MIC) (S. aureus; strain NSAU1063, MDR Clinical isolate): + (MIC threshold for positive activity (+) is ≤16 μg/mL)
MIC50 ([2]; read-out: MIC50): < 16 µg/mL
MIC90 ([2]; read-out: MIC90): < 16 µg/mL
MIC50 [3]: < 16 µg/mL
MIC90 [3]: < 16 µg/mL
MIC50 ([4]; read-out: MIC50): < 16 µg/mL
MIC90 ([4]; read-out: MIC90): < 16 µg/mL
MIC50 (Enterobacterales): < 16 µg/mL
MIC90 (Enterobacterales): < 16 µg/mL
MIC50 ([5]; read-out: MIC50): < 16 µg/mL
MIC90 ([5]; read-out: MIC90): < 16 µg/mL
MIC50 ([6]; read-out: MIC50): < 16 µg/mL
MIC90 ([6]; read-out: MIC90): < 16 µg/mL
MIC50 (P. aeruginosa [7]; read-out: MIC50): < 16 µg/mL
MIC90 (P. aeruginosa [7]; read-out: MIC90): < 16 µg/mL
MIC [8]: ≤ 16 µg/mL
MIC50 [9]: ≤ 16 µg/mL
